Test results reported in US8741911B2, “Raf inhibitor compounds” (Eli Lilly and Company, priority 2012, dated 2014).
Where two headings read alike, the source gives them in different places.

What was measured:
SK-OV-3 = assay: CellTiter-Glo proliferation and viability assay; assay type: cell-based; details: Homo sapiens
A375 cells = assay: CellTiter-Blue A375 cell proliferation assay; assay type: cell-based; details: Homo sapiens, A-375, read-out: Cell Proliferation Inhibition IC50
Procedure: (§1) Collection (ATCC, Manassas, Va.). Briefly, cells are grown in DMEM High Glucose supplemented with 10% characterized fetal bovine serum (Invitrogen, Carlsbad, Calif.) and 1% Penicillin/Streptomycin/L-Glutamine at 37 degrees Celsius, 5% CO2, and 95% humidity. Cells are allowed to expand until reaching 70-95% confluency at which point they are subcultured or harvested for assay use. A serial dilution of test compound is dispensed into a 384-well black clear bottom plate in triplicate. Six hundred twenty-five cells are added per well in 50 μL complete growth medium in the 384-well plate. Plates are incubated for 67 hours at 37 degrees Celsius, 5% CO2, and 95% humidity. At the end of the incubation period, 10 μL of a 440 μM solution of resazurin (Sigma, St. Louis, Mo.) in PBS is added to each well of the plate and plates are incubated for an additional 5 hours at 37 degrees Celsius, 5% CO2, and 95% humidity. Plates are read on a Synergy2 reader (Biotek, Winooski, Vt.) using an excitation of 540 nm and an emission of 600 nm. Data is analyzed using Prism software (Graphpad, San Diego, Calif.) to calculate IC50 values.
(§2) The A375, HT-29, and Colo-205 cells (ATCC) harbor a V600E mutation.

NCI-H2052 = assay: CellTiter-Glo proliferation and viability assay; assay type: cell-based; details: Homo sapiens
U-118-MG = assay: CellTiter-Glo proliferation and viability assay; assay type: cell-based; details: Homo sapiens
SW620 = assay: CellTiter-Glo proliferation and viability assay; assay type: cell-based; details: Homo sapiens
HL-60 = assay: CellTiter-Glo proliferation and viability assay; assay type: cell-based; details: Homo sapiens
HT-29 cells = assay: CellTiter-Blue HT-29 cell proliferation assay; assay type: cell-based; details: Homo sapiens; HT-29, CellTiter-Blue; read-out: Cell Proliferation Inhibition IC50
Procedure: as §1, with “HT-29 cells (catalog #HTB-38) are obtained from the American Type Culture Collection” for “Collection”, “in McCoy's 5A” for “in DMEM High Glucose”, “Carlsbad, Calif.),” for “Carlsbad, Calif.)”, “reaching 75-90%” for “reaching 70-95%”, “triplicate. One thousand two-hundred fifty” for “triplicate. Six hundred twenty-five”
as §2

A549 = assay: CellTiter-Glo proliferation and viability assay; assay type: cell-based; details: Homo sapiens
NOMO-1 = assay: CellTiter-Glo proliferation and viability assay; assay type: cell-based; details: Homo sapiens, read-out: Abs IC50
NCI-H1299 = assay: CellTiter-Glo proliferation and viability assay; assay type: cell-based; details: Homo sapiens
EB2 = assay: CellTiter-Glo proliferation and viability assay; assay type: cell-based; details: Homo sapiens
NUGC-3 = assay: CellTiter-Glo proliferation and viability assay; assay type: cell-based; details: Homo sapiens
NCI-H2030 = assay: CellTiter-Glo proliferation and viability assay; assay type: cell-based; details: Homo sapiens
MDA-MB-436 = assay: CellTiter-Glo proliferation and viability assay; assay type: cell-based; details: Homo sapiens
A375 = assay: CellTiter-Glo proliferation and viability assay; assay type: cell-based; details: Homo sapiens
B-Raf (V600E) = B-Raf (V600E) (Homo sapiens, UniProt P15056, V600E); assay: ActivX KiNativ A375 whole cell lysate assay; assay type: binding
Chain of B-Raf (V600E) (P15056 whole entry V600E): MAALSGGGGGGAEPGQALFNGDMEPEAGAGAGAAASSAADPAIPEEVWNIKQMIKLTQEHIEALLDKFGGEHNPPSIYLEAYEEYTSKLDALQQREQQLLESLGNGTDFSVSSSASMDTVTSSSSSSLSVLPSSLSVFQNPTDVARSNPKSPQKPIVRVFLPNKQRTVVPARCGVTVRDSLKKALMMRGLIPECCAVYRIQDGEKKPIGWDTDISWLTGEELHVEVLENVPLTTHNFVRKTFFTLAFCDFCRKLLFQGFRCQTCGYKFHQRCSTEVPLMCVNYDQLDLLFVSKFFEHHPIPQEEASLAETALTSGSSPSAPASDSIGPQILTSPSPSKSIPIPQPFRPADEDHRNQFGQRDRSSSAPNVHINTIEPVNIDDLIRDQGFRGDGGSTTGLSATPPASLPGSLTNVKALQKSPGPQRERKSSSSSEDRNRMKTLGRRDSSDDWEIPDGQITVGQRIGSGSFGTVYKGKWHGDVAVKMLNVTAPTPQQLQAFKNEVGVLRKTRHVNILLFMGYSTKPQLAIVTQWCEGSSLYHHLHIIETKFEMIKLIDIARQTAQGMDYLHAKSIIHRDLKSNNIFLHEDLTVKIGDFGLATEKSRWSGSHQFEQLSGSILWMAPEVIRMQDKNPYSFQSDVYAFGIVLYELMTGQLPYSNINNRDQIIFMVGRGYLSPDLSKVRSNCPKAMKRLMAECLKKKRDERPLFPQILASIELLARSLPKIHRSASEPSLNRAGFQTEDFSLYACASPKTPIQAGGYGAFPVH

CaOV-3 = assay: CellTiter-Glo proliferation and viability assay; assay type: cell-based; details: Homo sapiens
SK-HEP-1 = assay: CellTiter-Glo proliferation and viability assay; assay type: cell-based; details: Homo sapiens, SK-HEP1, read-out: Abs IC50
SK-Mel-5 = assay: CellTiter-Glo proliferation and viability assay; assay type: cell-based; details: Homo sapiens
CCRF-CEM = assay: CellTiter-Glo proliferation and viability assay; assay type: cell-based; details: Homo sapiens, read-out: Abs IC50
[1] = tested on: phospho-MEK and phospho-ERK in SK-MeI-2 cells; assay: Immunoblotting (Western Blot) analysis of phospho-MEK and phospho-ERK; assay type: cell-based, human; details: SK-MeI-2, Western Blot
Procedure: N-Ras mutations B-Raf wild type leads to MAPK activation through Raf proteins, particularly C-Raf.
Testing is carried out at doses of 0, and 11 serial dilutions ranging from 0.17 to 10000 nM. Protein lysates are generated by treatment of the cells with RIPA lysis buffer from Millipore. Western blotting analysis is performed substantially as described in Yadav et al, Molecular Carcinogenesis, 2011, 50: 346-52. Briefly, SDS-PAGE is performed on cell lysates containing 20 ug of total protein using 4-20% Novex® tri-glycine gradient gels (Invitrogen). Protein is transferred onto […] nitrocellulose membranes using NuPAGE® Transfer Buffer (Invitrogen) and 10% methanol at 100 V, 4° C. for 1 hr. Generally, the primary antibody is used at 1:1000 dilution, and secondary antibody at 1:20000 dilution. Proteins are detected using the Odyssey Infrared Imaging System (Li-COR Biosciences). Antibodies against ERK1/2, phospho-ERK1/2, phospho-MEK1/2, and actin are obtained from Cell Signaling Technology.

Structure (SMILES): CNc1ncc2cc(-c3cc(NC(=O)NCCC(C)(C)C)c(F)cc3C)c(C)nc2n1 [Example 1, 1-(3,3-Dimethylbutyl)-3-(2-fluoro-4-methyl-5-(7-methyl-2-(methylamino)pyrido[2,3-d]pyrimidin-6-yl)phenyl)urea]
- IC50 (SK-OV-3; read-out: Abs IC50): > 20 nM
- IC50 (SK-OV-3; read-out: Rel IC50): 10.8 nM
- IC50 (A375 cells): 9 nM
- IC50 (NCI-H2052; read-out: Abs IC50): 1.27 nM
- IC50 (NCI-H2052; read-out: Rel IC50): 0.33 nM
- IC50 (U-118-MG; read-out: Abs IC50): 5.21 nM
- IC50 (U-118-MG; read-out: Rel IC50): 0.76 nM
- IC50 (SW620; SW-620, read-out: Abs IC50): 2.86 nM
- IC50 (SW620; SW-620, read-out: Rel IC50): 0.46 nM
- IC50 (HL-60; read-out: Abs IC50): 0.2 nM
- IC50 (HL-60; read-out: Rel IC50): 0.14 nM
- IC50 (HT-29 cells): 7 nM
- IC50 (A549; read-out: Abs IC50): 4.42 nM
- IC50 (A549; read-out: Rel IC50): 2.07 nM
- IC50 (NOMO-1): 2.63 nM
- IC50 (NCI-H1299; read-out: Abs IC50): 0.91 nM
- IC50 (NCI-H1299; read-out: Rel IC50): 0.14 nM
- IC50 (EB2; read-out: Abs IC50): > 20 nM
- IC50 (EB2; read-out: Rel IC50): 0.5 nM
- IC50 (NUGC-3; read-out: Abs IC50): 0.68 nM
- IC50 (NUGC-3; read-out: Rel IC50): 0.21 nM
- IC50 (NCI-H2030; read-out: Abs IC50): 0.83 nM
- IC50 (NCI-H2030; read-out: Rel IC50): 0.41 nM
- IC50 (MDA-MB-436; read-out: Abs IC50): > 20 nM
- IC50 (MDA-MB-436; read-out: Rel IC50): 0.26 nM
- IC50 (A375; A-375, A375, B-Raf V600E, melanoma): 9.2 nM
- IC50 (A375; A-375, parental A375 B-Raf V600E cells, comparison with A375res): 11 nM
- inhibition at 0.1 µM (B-Raf (V600E); 100 nM): 82.9%
- % inhibition (B-Raf (V600E); 100 nM, 0.1 µM): 82%
- inhibition at 1 µM (B-Raf (V600E); 1000 nM): 96.5%
- % inhibition (B-Raf (V600E); 1000 nM, 1 µM): >98%
- IC50 (CaOV-3; read-out: Abs IC50): 9.58 nM
- IC50 (CaOV-3; read-out: Rel IC50): 5.32 nM
- IC50 (SK-HEP-1): 1.96 nM
- IC50 (SK-Mel-5; read-out: Abs IC50): 0.13 nM
- IC50 (SK-Mel-5; read-out: Rel IC50): 0.06 nM
- IC50 (CCRF-CEM): 1.5 nM
- dose at which phospho-ERK activity is substantially eliminated [1]: 370 nM
- phospho-MEK and phospho-ERK inhibition ([1]; 0.17 to 10000 nM): dose dependent phospho-MEK and phospho-ERK inhibition
